Patent publication US11422132B2, “Peptides and uses thereof for diagnosing and treating myasthenia gravis” (The Regents of the University of California, priority 2016, dated 2022)
Entries after “also recorded” stand apart in the source; their conditions may differ.

How the values were obtained:
Format in all cases: binding, rat
mAb 198 = test: Western blot of peptide-IChBD fusion proteins probed with mAb 198; settings: for mAb 198 binding relative to Torpedo 39MIR: FIG. 5 Western blots, Torpedo 39MIR single mutants
Description: (§1) Chitin beads adsorbed with peptide-IChBD fusion proteins were run on an SDS-PAGE gel and transferred to a nitrocellulose membrane and assayed with the four mAbs.
(§2) Chitin beads adsorbed with peptide-IChBD fusion proteins were run on an SDS-PAGE gel and transferred to a nitrocellulose membrane and assayed with the five mAbs.
The Torpedo (SEQ ID NO:9) and human (SEQ ID NO:8) 39MIRs were made by joining the α(1-12), α(65-79), and α(110-115) segments of their respective a subunits with GS linkers. These two MIR mimics were expressed in E. coli as fusion proteins with an IChBD tag to permit peptide collection on chitin beads. These two peptides differ from each other by eight amino acids (FIG. 2). Both mimics were probed with mAb 198. mAb 198, which was derived from rats that had been immunized with human muscle AChR, is a MIR-directed mAb that binds mammalian as well as Torpedo MIR (13,21). It was also able to passively transfer EAMG to rats and binds to both native assembled AChR and to α-subunit fragments in Western blots (22,23). mAb 198 binds to the Torpedo and human MIR peptide mimics in Western blots (FIG. 3). However, mAb 198 binds to the Torpedo mimic about 50 times more strongly than to the human MIR mimic (FIG. 3).
(§3) To explore the effects of individual amino acid substitutions between the Torpedo and the human AChR MIR mimics, eight peptides were prepared, each with an amino acid substituted from the human sequence into the Torpedo sequence. The single amino acid substitutions in the Torpedo MIR were: N10K (SEQ ID NO:11), L12F (SEQ ID NO:12), R66K (SEQ ID NO:13), A70D (SEQ ID NO:14), I75V (SEQ ID NO:15), R79H (SEQ ID NO:16), D111Q (SEQ ID NO:17), and K115H (SEQ ID NO:18).

mAb 35 [1] = test: Western blot of peptide-IChBD fusion proteins probed with mAb 35; design: key to mAb 35, fold-change in binding relative to Torpedo 39MIR: ‘—’ denotes no binding; settings: for mAb 35 binding, result in words: Western blot; for mAb 35 binding relative to binding to the Torpedo 39MIR: FIG. 5 Western blots, Torpedo 39MIR single mutants; for mAb 35, fold-change in binding relative to Torpedo 39MIR: Table 1, Western blot of FIG. 5, Torpedo 39MIR single mutants
Procedure: as §1, §2, §3

mAb 35 [2] = test: as above; design: key to mAb 35, fold-change in binding relative to Torpedo 39MIR: ‘—’ denotes no binding; settings: for mAb 35, fold-change in binding relative to Torpedo 39MIR: Table 3, single-substitution human 39MIR mutants
mAb 132A [3] = test: Western blot of peptide-IChBD fusion proteins probed with mAb 132A; design: key to mAb 132A, fold-change in binding relative to Torpedo 39MIR: ‘—’ denotes no binding; settings: Table 3, single-substitution human 39MIR mutants
mAb 132A [4] = test: as above; settings: for mAb 132A binding relative to binding to the Torpedo 39MIR: FIG. 5 Western blots, Torpedo 39MIR single mutants; for mAb 132A, fold-change in binding relative to Torpedo 39MIR: Table 1, Western blot of FIG. 5, Torpedo 39MIR single mutants
Procedure: as §1, §2, §3

mAb 334 = test: Western blot of peptide-IChBD fusion proteins probed with mAb 334; settings: for mAb 334 binding relative to Torpedo 39MIR: FIG. 5 Western blots, Torpedo 39MIR single mutants; for mAb 334, fold-change in binding relative to Torpedo 39MIR: Table 1, Western blot of FIG. 5, Torpedo 39MIR single mutants
Procedure: as §2, §3

[5] = Table 3, single-substitution human 39MIR mutants
[6] = Table 1, Western blot of FIG. 5, Torpedo 39MIR single mutants

Sequence | mAb 198, fold-change in binding relative to Torpedo 39MIR (mAb 198; [5]) [fold-change] | mAb 198 binding, result in words (mAb 198; Western blot) | mAb 35 binding, result in words (mAb 35 [1]) | mAb 35, fold-change in binding relative to Torpedo 39MIR (mAb 35 [2]) | mAb 132A, fold-change in binding relative to Torpedo 39MIR (mAb 132A [3]) | mAb 198 binding compared to its binding to the human 39MIR (mAb 198; human 39MIR mutants, relative to human 39MIR) [×] | mAb 35 binding compared to the Torpedo 39MIR peptide (mAb 35 [2]; single point mutated human 39MIR peptides) | mAb 132A binding, result in words (mAb 132A [4]; Western blot) | mAb 198 binding relative to Torpedo 39MIR (mAb 198) [×] | mAb 198, fold-change in binding relative to Torpedo 39MIR (mAb 198; [6]) [fold-change] | mAb 35 binding relative to binding to the Torpedo 39MIR (mAb 35 [1]) [×] | mAb 35, fold-change in binding relative to Torpedo 39MIR (mAb 35 [1]) | mAb 334 binding relative to Torpedo 39MIR (mAb 334) [×] | mAb 334, fold-change in binding relative to Torpedo 39MIR (mAb 334) [fold-change] | mAb 132A binding relative to binding to the Torpedo 39MIR (mAb 132A [4]) [×] | mAb 132A, fold-change in binding relative to Torpedo 39MIR (mAb 132A [4]) [fold-change]
SEHETRLVAKLFGGGSLKWNPADYGGVKKIHGSLQYTGH (synthetic main immunogenic region (MIR) peptide) [Mutant D70A, Human 39MIR single mutant (D70A)] | 0.02 | comparable to binding to human 39MIR | failed to restore mAb 35 binding | — | — |  |  |  |  |  |  |  |  |  |  | 
SEHETRLVAKLFGGGSLKWNPDDYGGIKKIHGSLQYTGH (synthetic main immunogenic region (MIR) peptide) [Mutant V75I, Human 39MIR single mutant (V75I)] | 0.65 |  | restored mAb 35 binding | 0.03 fold-change | — | 40 | 0.03 |  |  |  |  |  |  |  |  | 
SEHETRLVAKLFGGGSLKWNPDDYGGVKKIHGSLDYTGH [rat 39 MIR] (synthetic main immunogenic region (MIR) peptide) [Mouse 39MIR; rat/mouse 39MIR homolog] |  |  | did not bind |  |  |  |  | did not bind |  |  |  |  |  |  |  | 
SEHETRLVAKLLGGGSLRWNPADYGGIKKIRGSLDYTGK (synthetic main immunogenic region (MIR) peptide) [Mutant N10K, Torpedo 39MIR single mutant (N10K)] |  |  |  |  |  |  |  |  | 0.82 | 0.82 | 0.29 | 0.29 fold-change | 0.59 | 0.59 | 0.03 | 0.03
SEHETRLVANLFGGGSLRWNPADYGGIKKIRGSLDYTGK (synthetic main immunogenic region (MIR) peptide) [Mutant L12F, Torpedo 39MIR single mutant (L12F)] |  |  |  |  |  |  |  |  |  | 0.90 | 1.42 | 1.42 fold-change | 0.88 | 0.88 | 1.10 | 1.10
SEHETRLVANLLGGGSLKWNPADYGGIKKIRGSLDYTGK (synthetic main immunogenic region (MIR) peptide) [Mutant R66K, Torpedo 39MIR single mutant (R66K)] |  |  |  |  |  |  |  |  |  | 1.03 | 0.62 | 0.62 fold-change | 2.75 | 2.75 | 1.55 | 1.55
SEHETRLVANLLGGGSLRWNPADYGGIKKIHGSLDYTGK (synthetic main immunogenic region (MIR) peptide) [Mutant R79H, Torpedo 39MIR single mutant (R79H)] |  |  |  |  |  |  |  |  |  | 0.97 | 1.91 | 1.91 fold-change | 2.40 | 2.40 | 1.65 | 1.65
SEHETRLVANLLGGGSLRWNPADYGGIKKIRGSLDYTGH (synthetic main immunogenic region (MIR) peptide) [Mutant K115H, Torpedo 39MIR single mutant (K115H)] |  |  | did not bind; also recorded: completely abolished |  |  |  |  |  |  | 1.07 |  | — | 0.42 | 0.42 | 0.40 | 0.40
SEHETRLVANLLGGGSLRWNPADYGGIKKIRGSLQYTGK (synthetic main immunogenic region (MIR) peptide) [Mutant D111Q, Torpedo 39MIR single mutant (D111Q)] |  |  | did not bind |  |  |  |  |  | 0.16 | 0.16 |  | — | 0.02 | 0.02 | 0.07 | 0.07
SEHETRLVANLLGGGSLRWNPADYGGVKKIRGSLDYTGK (synthetic main immunogenic region (MIR) peptide) [Mutant I75V, Torpedo 39MIR single mutant (I75V)] |  |  | did not bind |  |  |  |  |  | 0.16 | 0.16 |  | — | 0.03 | 0.03 | 0.07 | 0.06
SEHETRLVANLLGGGSLRWNPDDYGGIKKIRGSLDYTGK (synthetic main immunogenic region (MIR) peptide) [Mutant A70D, Torpedo 39MIR single mutant (A70D)] |  |  |  |  |  |  |  |  |  | 1.08 | 0.93 | 0.93 fold-change | 1.04 | 1.04 | 0.20 | 0.20
